Reference: PubChem BioAssay (NCI)
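The concentration for 50% growth inhibition is given as GI50. TGI marks complete inhibition of growth.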

Key:
Assay in all cases: NCI anticancer screen, dose series, 384-well format
[1] = tested on: SR leukemia
[2] = tested on: SNB-19 CNS
[3] = tested on: CCRF-CEM leukemia
[4] = tested on: MALME-3M melanoma
[5] = tested on: MDA-MB-231 breast
[6] = tested on: NCI-H226 lung
[7] = tested on: HOP-62 NSCLC
[8] = tested on: MOLT-4 leukemia
[9] = tested on: TK-10 renal
[10] = tested on: SF-539 CNS
[11] = tested on: NCI/ADR-RES ovarian
[12] = tested on: PC-3 prostate
[13] = tested on: MDA-MB-468 breast
[14] = tested on: MDA-MB-435 melanoma
[15] = tested on: SK-MEL-28 melanoma
[16] = tested on: HCT-15 colon
[17] = tested on: HOP-92 NSCLC
[18] = tested on: M14 melanoma
[19] = tested on: A498 renal
[20] = tested on: A549 NSCLC
[21] = tested on: EKVX NSCLC
[22] = tested on: OVCAR-4 ovarian
[23] = tested on: 786-0 renal
[24] = tested on: SF-295 CNS
[25] = tested on: ACHN renal
[26] = tested on: UACC-257 melanoma
[27] = tested on: IGROV1 ovarian

Compound CCN1C(=O)N(c2c(F)c(OC)cc(OC)c2F)Cc2cnc3[nH]c(CN4CCOCC4)cc3c21 has a GI50 [1] of 2.67 µM, a TGI [1] of 8.35 µM and a GI50 [2] of over 100 µM. The TGI [2] was over 100 µM, the GI50 [3] was 5.26 µM and the GI50 [4] was 4.24 µM. It also gave a TGI [4] of over 30.1 µM, a GI50 [5] of 6.15 µM and a TGI [5] of 43.5 µM. The TGI [6] was 9.91 µM, the GI50 [7] was 4.98 µM and the TGI [7] was over 100 µM. It also gave a GI50 [8] of 1.95 µM, a TGI [8] of 4 µM and a GI50 [9] of over 100 µM. The TGI [9] was over 100 µM, the GI50 [10] was 3.55 µM and the TGI [10] was over 44.5 µM. It also gave a GI50 [11] of 4.51 µM, a TGI [11] of over 100 µM and a GI50 [12] of over 100 µM. It also gave a TGI [12] of over 100 µM, a GI50 [13] of 3.64 µM and a TGI [13] of 9.09 µM. It also gave a GI50 [14] of over 100 µM, a TGI [14] of over 100 µM and a GI50 [15] of over 100 µM. For the same compound, the TGI [15] was over 100 µM, the GI50 [16] was 3.17 µM and the TGI [16] was over 100 µM. The GI50 [17] was 3.5 µM, the TGI [17] was 23.6 µM and the GI50 [18] was 5.19 µM. The TGI [18] was over 100 µM, the GI50 [19] was 2.03 µM and the TGI [19] was 57.3 µM. It also gave a GI50 [20] of 4.69 µM, a TGI [20] of over 31.6 µM and a GI50 [21] of over 81 µM. For the same compound, the TGI [21] was over 100 µM, the GI50 [22] was 19.3 µM and the TGI [22] was over 100 µM. For the same compound, the GI50 [23] was 6.99 µM, the TGI [23] was over 100 µM and the GI50 [24] was 4.62 µM. It also gave a TGI [24] of 47.4 µM, a GI50 [25] of 3.86 µM and a TGI [25] of over 100 µM. For the same compound, the GI50 [26] was over 100 µM, the TGI [26] was over 100 µM and the GI50 [27] was 4.55 µM. The TGI [27] was over 100 µM.
